Reference: paper PMC6254286, “Quantitative Structure − Antiprotozoal Activity Relationships of Sesquiterpene Lactones ^†” (Molecules, 2009)
Where two headings read alike, the source gives them in different places.

Key:
[1] = Cytotoxicity against L6 cells (Alamar blue); conditions: rat; for IC50: IC50 Cytotoxicity (L6), L6 rat skeletal myoblasts, 72 h, mean of two independent measurements
Procedure: (§1) Trypanosoma brucei rhodesiense and cytotoxicity against L6 cells. Minimum Essential Medium with Earle’s salts (50 µL) supplemented with 0.2 mM 2-mercapto-ethanol, 1 mM Na-pyruvate and 15% heat-inactivated horse serum was added to each well of a 96-well microtiter plate. […] Then 10^4 bloodstream forms of Trypanosoma brucei rhodesiense STIB 900 in 50 µL of medium were added to each well and the plate incubated at 37°C under a 5% CO2 atmosphere for 72 hours. […] The plate was then read in a Spectramax Gemini XS microplate fluorometer (Molecular Devices Corporation, Sunnyvale, CA, USA) using an excitation wavelength of 536 nm and emission wavelength of 588 nm. Fluorescence development was measured and expressed as percentage of the control. Data were transferred into the graphic programme Softmax Pro (Molecular Devices) which calculated IC50 values. Cytotoxicity was assessed using a similar protocol and rat skeletal myoblasts (L6 cells). […] All following steps were according to the T. b. rhodesiense protocol.

[2] = system: rat skeletal myoblasts (L6 cells); assay: in vitro
Procedure: as §1

[3] = system: Trypanosoma brucei rhodesiense STIB 900; assay: In vitro activity against T. brucei rhodesiense bloodstream forms (Alamar blue); type: cell-based; conditions: for IC50: mean of two independent measurements
Procedure: as §1

[4] = system: K1 strain of P. falciparum; assay: Antiplasmodial [3H]-hypoxanthine incorporation assay; type: cell-based, Plasmodium falciparum
Procedure: Plasmodium falciparum. Antiplasmodial activity was determined using the K1 strain of P. falciparum (resistant to chloroquine and pyrimethamine). A modification of the [3H]-hypoxanthine incorporation assay was used. Briefly, infected human red blood cells (final parasitaemia and haematocrit were 0.3% and 1.25%, respectively) in RPMI 1640 medium with 5% Albumax were exposed to serial drug dilutions in microtiter plates. After 48 hours of incubation at 37°C in a reduced oxygen atmosphere, 0.5 mCi 3H-hypoxanthine was added to each well. Cultures were incubated for a further 24 h before they were harvested onto glass-fiber filters and washed with distilled water. The radioactivity was counted using a BetaplateTM liquid scintillation counter (Wallac, Zurich, Switzerland). […] From the sigmoidal inhibition curves IC50 values were calculated. Assays were run in duplicate and repeated once.

[5] = system: T. cruzi Tulahuen strain C2C4; assay: In vitro activity against T. cruzi in L-6 host cells (beta-galactosidase/CPRG); type: cell-based, Trypanosoma cruzi; conditions: read-out: IC50 T. cruzi (Tcr)
Procedure: Trypanosoma cruzi. Rat skeletal myoblasts (L-6 cells) were seeded in 96-well microtiter plates at 2,000 cells/well in 100 µL RPMI 1640 medium with 10% FBS (fetal bovine serum) and 2 mM L-glutamine. After 24 hours the medium was removed and replaced by 100 µL per well containing 5,000 trypomastigote forms of T. cruzi Tulahuen strain C2C4 containing the β-galactosidase (Lac Z) gene. Fortyeight hours later the medium was removed from the wells and replaced by […] fresh medium with or without a serial drug dilution. Seven 3-fold dilutions were used covering a range from […]. Each drug was tested in duplicate. After 96 hours of incubation the plates were inspected under an inverted microscope to assure growth of the controls and sterility. Then the substrate CPRG/ Nonidet (50 µL) was added to all wells. A colour reaction developed within 2-6 hours and could be read photometrically at 540 nm.

[6] = system: Leishmania donovani amastigotes (strain MHOM/ET/67/L82); assay: L. donovani axenic amastigote assay (resazurin); type: cell-based
Procedure: Leishmania donovani (axenic amastigote assay). […] Serial drug dilutions in duplicates were prepared covering a range from 30 to 0.041 µg/mL. […] The compounds used as positive controls in the various bioassays (see Table 1) were of commercial origin, with the exception of melarsoprol, which was a gift from WHO. Their purity (generally > 95%) was specified by the manufacturers.

[7] = L6 cells (rat skeletal myoblasts)
[8] = Trypanosoma brucei, 72 h, bloodstream forms STIB 900, 72 h, read-out: IC50 T. brucei rhodes. (Tbr)
[9] = Plasmodium falciparum, K1, K1 strain (resistant to chloroquine and pyrimethamine), mean of two independent measurements, read-out: IC50 P. falciparum (Pfc)
[10] = Trypanosoma cruzi, L6, Tulahuen C2C4 in L-6 cells, 96 h, mean of two independent measurements
[11] = Leishmania donovani, 72 h, pH 5.4, axenic amastigotes, pH 5.4, 72 h, mean of two independent measurements, read-out: IC50 L. donovani (Ldon)
[12] = bloodstream forms STIB 900, 72 h, read-out: IC50 T. brucei rhodes. (Tbr)
[13] = protozoa, especially Tbr, versus L6 mammalian cells
[14] = Trypanosoma cruzi, TULAHUEN, L6, 96 h, Tulahuen C2C4 in L-6 cells, 96 h, mean of two independent measurements
[15] = Plasmodium falciparum, K1, read-out: IC50 P. falciparum (Pfc)

Structure (SMILES)	IC50 at 72 h [1, 7]	IC50 [3, 8]	IC50 [4, 9]	IC50 [6, 11]	IC50 [5, 14]	further results
C=C1C(=O)OC2CC(C)C(C=CC(C)=O)=CCC12 (stereo not drawn) [Compound 18]	30.2 µM	2.92 µM	7.83 µM	17.6 µM	–	antiparasitic activity compared with cytotoxicity (in words) [2]: significantly higher levels of antiparasitic activity, especially against Tbr, than cytotoxicity; IC50 [5, 10]: 26.2 µM
C=C1C(=O)OC2C1CCC1(C)C(O)CCC(=C)C21 (stereo not drawn) [Compound 32]	–	–	–	–	–	IC50 ([2]; read-out: IC50 Cytotoxicity (L6), L6 rat skeletal myoblasts, 72 h, mean of two independent measurements): 25.6 µM; IC50 [3, 12]: 1.11 µM; IC50 ([4]; K1 strain (resistant to chloroquine and pyrimethamine), mean of two independent measurements, read-out: IC50 P. falciparum (Pfc)): 13.6 µM; IC50 ([5]; Tulahuen C2C4 in L-6 cells, 96 h, mean of two independent measurements): 26.2 µM; IC50 ([6]; axenic amastigotes, pH 5.4, 72 h, mean of two independent measurements, read-out: IC50 L. donovani (Ldon)): 7.34 µM
C=C1C(=O)OC2CC(C)C3(C=CC(C)=O)OC3CC12 (stereo not drawn) [Compound 19, 8-epixanthatin-1,5-epoxide]	22.1 µM	0.33 µM	6.51 µM	0.599 µM	11.3 µM	antiparasitic activity compared with cytotoxicity (in words) [2, 13]: significantly higher levels of antiparasitic activity, especially against Tbr, than cytotoxicity; selectivity index (SI) with respect to Tbr ([3]; ratio of cytotoxic IC50 (L6) over IC50 against Tbr): 67; selectivity index (SI) with respect to Ldon ([6]; ratio of cytotoxic IC50 (L6) over IC50 against Ldon): 36
C=C1C(=O)OC2C=C(C)C(OC(C)=O)CC3OC3(C)CC(OC(=O)C(C)=CC)C12 (stereo not drawn) [Compound 39]	–	–	–	–	–	IC50 at 72 h [1]: 10.1 µM; IC50 ([3]; Trypanosoma brucei, 72 h, read-out: IC50 T. brucei rhodes. (Tbr), bloodstream forms STIB 900, 72 h): 0.804 µM; IC50 [4, 15]: 8.07 µM; IC50 ([5]; Trypanosoma cruzi, TULAHUEN, L6, 96 h): 17.6 µM; IC50 ([6]; Leishmania donovani, 72 h, pH 5.4, read-out: IC50 L. donovani (Ldon)): 30.1 µM
C=C1C(=O)OC2CC(C)C3(O)C=C(C(C)=O)C4(CC3CC12)C(=O)OC1CC(C)C2(C=CC(C)=O)OC2CC14 (stereo not drawn) [Compound 22]	13.3 µM	1.29 µM	6.53 µM	26.9 µM	95.4 µM	–
C=C1C(=O)OC2CC3(C)CC(OC(C)=O)CC(=C)C3CC12 (stereo not drawn) [Compound 27]	8.91 µM	10.7 µM	9.21 µM	11.8 µM	24.3 µM	–
C=C1C(=O)OC2CC3(C)CCCC(C)C3=CC12 (stereo not drawn) [Compound 29]	–	2.62 µM	6.4 µM	3.03 µM	8.3 µM	IC50 at 72 h [1]: 5.99 µM
C=C1C(=O)OC2CC(C)C3C=CC(=O)C3(C)C(OC(=O)CC(C)C)C12 (stereo not drawn) [Compound 4]	–	0.116 µM	–	–	–	IC50 [1]: 1.3 µM; IC50 [4, 15]: 0.822 µM; IC50 [5, 10]: 2.48 µM; IC50 ([6]; Leishmania donovani, axenic amastigotes, pH 5.4, 72 h, mean of two independent measurements, read-out: IC50 L. donovani (Ldon)): 0.871 µM
C=C1C(=O)OC2CC3(C)CC(O)CC(=C)C3CC12 (stereo not drawn) [Compound 26]	0.948 µM	7.8 µM	–	> 4 µM	24.8 µM	antiparasitic activity compared with cytotoxicity (in words) [2, 13]: considerably more toxic against the mammalian cells than against the protozoa
C=C1C(=O)OC2CC3(C)CCCC(=C)C3CC12 (stereo not drawn) [Compound 25]	–	23.6 µM	–	> 14 µM	22.3 µM	IC50 at 72 h [1]: 4.48 µM; antiparasitic activity compared with cytotoxicity (in words) [2, 13]: considerably more toxic against the mammalian cells than against the protozoa
C=C1C(=O)OC2C1CCC1(C)C(O)CCC(=C)C21 (stereo not drawn) [Compound 31]	–	–	12.1 µM	6.01 µM	28.9 µM	IC50 [1]: 33.2 µM; IC50 [3, 12]: 17.8 µM
C=C1C(=O)OC2CC(C)C3C(OC(C)=O)CC(O)C3(C)CC12 (stereo not drawn) [Compound 10]	–	6.71 µM	6.46 µM	12.2 µM	20.4 µM	IC50 [1]: 4.39 µM
C=C1C(=O)OC2C=C(C)C(O)CC3OC3(C)CC(OC(=O)C(C)=CC)C12 (stereo not drawn) [Compound 38]	13 µM	0.942 µM	8.81 µM	18.2 µM	16.5 µM	–
